Laboratory results from patent US20080176810A1, “Use of 3, 4', 5-Trihydroxy-Stilbene-3-Beta-D-glucoside in Prepartion of Medicines For Treating and/or Preventing Ischemic Heart Disease” (SHENZHEN NEPTUNUS PHARMACEUTICAL CO., LTD., priority 2004, published 2008).

Tested on: anesthetized dogs
Assay: Myocardial oxygen consumption, coronary flow, cardiac output in anesthetized dogs, iv
Type: in vivo
Conditions: c3-c8 5,15,30,60,90,120 min after administration; for coronary artery resistance, x ± s / myocardial oxygen consumption, x ± s / total peripheral resistance (TPR), x ± s / cardiac output, x ± s / myocardial oxygen uptake, x ± s: c2 0 min before
Procedure: Isosorbide Dinitrate control group were medicated by continuous intravenous infusion and other groups by intravenous injection.
The animals were anesthetised with 3% pentobarbital sodium iv at the dose of 30 mg/kg. Tracheal intubation was performed and SC-M5 anesthesia respirator (manufactured by Shanghai Medical Instrument Factory, frequency: 16˜18 per min, tidal volume: 350˜550 ml) was connected. Bilateral femoral arteries were separated for blood sampling and analyzing and measurement of mean blood pressure. Thoracotomy at the fourth intercostal space was performed to expose the heart and to open the pericardium to make pericardial hammock. Ascending aortic root and upper part of left branch of anterior descending coronary artery were dissociated to put respectively probes of electromagnetic flowmeter (MFV-1100/1200, made by Japanese Nihon Kohden Company) to measure cardiac output and coronary artery flow rate. Right jugular vein was separated for insertion of a cardiac catheter that was guided into coronary venous sinuses before fixation. Synchronously, blood was sampled by drawing from coronary sinus and femoral artery (0.5% heparin was added for anticoagulation). pO2 and pH were detected with a blood gas analyzer (DH-1830 Blood Gas Acid-base Analyze, Nanjing Ananalysis Apparatus Factor) and the values were converted to artery and venous oxygen content. After intravenous infusion of control solvent or the drug, constant infusion for all groups was completed with an electronic constant flow pump (SH-88AB Controllable Intravenous Injector made by Quanzhou Lizhong Electronic Medical Instrument Factory). Both artery and venous blood gas before administration or 5, 15, 30, 60, 90 and 120 min after administration was analyzed and mean blood pressure and cardiac output at 0, 5, 15, 30, 60, 90 and 120 min were observed.
Myocardial oxygen consumption(ml/min/100 g)=coronary flow ml/min/100 g×artery oxygen−coronary sinus oxygen ml %).
Myocardial oxygen uptake (%)=(artery oxygen ml %−coronary sinus oxygen ml %)/artery oxygen ml %
Total peripheral resistance of general circulation(dyn·s·cm−5)=mean arterial blood pressure[MAP(KPa)]×80/cardiac output[CO(L/min)]=mean arterial blood pressure[MAP(mmHg)]×10.6/cardiac output[CO(L/min)]
Coronary resistance[Kpa/ml/min]=mean arterial blood pressure[MAP(KPa)]/coronary artery flow.

[1] = TSG 2.5 mg/kg iv, 0 min, before administration
[2] = TSG 2.5 mg/kg iv, 5 min after administration
[3] = TSG 2.5 mg/kg iv, 15 min after administration
[4] = TSG 2.5 mg/kg iv, 30 min after administration
[5] = TSG 2.5 mg/kg iv, 60 min after administration
[6] = TSG 2.5 mg/kg iv, 90 min after administration
[7] = TSG 2.5 mg/kg iv, 120 min after administration
[8] = TSG 2.5 mg/kg iv, before administration, 0 min
[9] = TSG 5 mg/kg iv, 0 min, before administration
[10] = TSG 5 mg/kg iv, 5 min after administration
[11] = TSG 5 mg/kg iv, 15 min after administration
[12] = TSG 5 mg/kg iv, 30 min after administration
[13] = TSG 5 mg/kg iv, 60 min after administration
[14] = TSG 5 mg/kg iv, 90 min after administration
[15] = TSG 5 mg/kg iv, 120 min after administration

3,4′,5-trihydroxy-stilbene-3-β-D-glucoside [TSG]
coronary artery resistance, x ± s [1]: 0.268 ± 0.050 Kpa/ml/min
myocardial oxygen consumption, x ± s [1]: 214.6 ± 5.24 mL/min.100 g^−1
total peripheral resistance (TPR), x ± s [1]: 888.8 ± 200.9 dyn·s·cm^−5
cardiac output, x ± s [2]: 1.09 ± 0.12 L/min
coronary artery resistance, x ± s [2]: 0.269 Kpa/ml/min
myocardial oxygen consumption, x ± s [2]: 215.5 ± 8.73 mL/min.100 g^−1
myocardial oxygen uptake, x ± s [2]: 77.4%
total peripheral resistance (TPR), x ± s [2]: 873.5 ± 210.3 dyn·s·cm^−5
cardiac output, x ± s [3]: 1.09 ± 0.14 L/min
coronary artery resistance, x ± s [3]: 0.266 ± 0.049 Kpa/ml/min
total peripheral resistance (TPR), x ± s [3]: 888.7 ± 208.8 dyn·s·cm^−5
cardiac output, x ± s [4]: 1.10 ± 0.13 L/min
coronary artery resistance, x ± s [4]: 0.257 ± 0.054 Kpa/ml/min
myocardial oxygen consumption, x ± s [4]: 218.2 ± 6.85 mL/min.100 g^−1
myocardial oxygen uptake, x ± s [4]: 74.2 ± 5.11%
total peripheral resistance (TPR), x ± s [4]: 869.1 ± 249.3 dyn·s·cm^−5
cardiac output, x ± s [5]: 1.11 ± 0.13 L/min
coronary artery resistance, x ± s [5]: 0.261 ± 0.051 Kpa/ml/min
myocardial oxygen consumption, x ± s [5]: 218.0 ± 8.95 mL/min.100 g^−1
myocardial oxygen uptake, x ± s [5]: 73.1 ± 6.16%
total peripheral resistance (TPR), x ± s [5]: 890.2 ± 240.3 dyn·s·cm^−5
coronary artery resistance, x ± s [6]: 0.267 ± 0.054 Kpa/ml/min
myocardial oxygen consumption, x ± s [6]: 214.1 ± 8.39 mL/min.100 g^−1
myocardial oxygen uptake, x ± s [6]: 75.0 ± 6.24%
total peripheral resistance (TPR), x ± s [6]: 877.6 ± 225.1 dyn·s·cm^−5
cardiac output, x ± s [7]: 1.10 ± 0.14 L/min
coronary artery resistance, x ± s [7]: 0.271 ± 0.055 Kpa/ml/min
total peripheral resistance (TPR), x ± s [7]: 868.6 ± 221.8 dyn·s·cm^−5
cardiac output, x ± s [8]: 1.06 ± 0.13 L/min
myocardial oxygen uptake, x ± s [8]: 76.9 ± 5.50%
cardiac output, variation % [2]: 2.50 ± 2.42%
coronary artery resistance, variation % [2]: 0.81%
myocardial oxygen consumption, variation % [2]: 0.40 ± 3.16%
myocardial oxygen uptake, variation % [2]: 0.72%
total peripheral resistance (TPR), variation % [2]: −1.89 ± 6.74%
cardiac output, variation % [3]: 1.97 ± 1.55%
coronary artery resistance, variation % [3]: −0.34 ± 2.36%
total peripheral resistance (TPR), variation % [3]: −0.10 ± 4.21%
cardiac output, variation % [4]: 3.88 ± 3.48%
coronary artery resistance, variation % [4]: −3.82 ± 9.83%
myocardial oxygen consumption, variation % [4]: 1.66 ± 1.48%
myocardial oxygen uptake, variation % [4]: −3.47 ± 1.59%
total peripheral resistance (TPR), variation % [4]: −3.22 ± 9.65%
cardiac output, variation % [5]: 4.41 ± 1.40%
coronary artery resistance, variation % [5]: −2.48 ± 8.17%
myocardial oxygen consumption, variation % [5]: 1.57 ± 2.94%
myocardial oxygen uptake, variation % [5]: −4.99 ± 3.01 %
total peripheral resistance (TPR), variation % [5]: −0.56 ± 7.52%
cardiac output, variation % [6]: 4.40 ± 1.64%
coronary artery resistance, variation % [6]: −0.24 ± 10.72%
myocardial oxygen consumption, variation % [6]: −0.25 ± 2.84%
myocardial oxygen uptake, variation % [6]: −2.58 ± 2.67 %
total peripheral resistance (TPR), variation % [6]: −1.52 ± 9.42%
cardiac output, variation % [7]: 3.23 ± 2.57%
coronary artery resistance, variation % [7]: 1.19 ± 6.55%
total peripheral resistance (TPR), variation % [7]: −2.58 ± 7.26%
coronary artery resistance, x ± s [9]: 0.299 ± 0.029 Kpa/ml/min
myocardial oxygen consumption, x ± s [9]: 211.4 ± 4.05 mL/min.100 g^−1
total peripheral resistance (TPR), x ± s [9]: 906.3 ± 193.9 dyn·s·cm^−5
cardiac output, x ± s [10]: 1.13 ± 0.12 L/min
coronary artery resistance, x ± s [10]: 0.308 Kpa/ml/min
myocardial oxygen consumption, x ± s [10]: 210.4 ± 6.48 mL/min.100 g^−1
myocardial oxygen uptake, x ± s [10]: 79.6%
total peripheral resistance (TPR), x ± s [10]: 897.1 ± 184.7 dyn·s·cm^−5
cardiac output, x ± s [11]: 1.13 ± 0.13 L/min
coronary artery resistance, x ± s [11]: 0.305 ± 0.029 Kpa/ml/min
total peripheral resistance (TPR), x ± s [11]: 916.6 ± 186.2 dyn·s·cm^−5
cardiac output, x ± s [12]: 1.15 ± 0.14 L/min
coronary artery resistance, x ± s [12]: 0.299 ± 0.026 Kpa/ml/min
myocardial oxygen consumption, x ± s [12]: 210.2 ± 8.65 mL/min.100 g^−1
myocardial oxygen uptake, x ± s [12]: 74.8 ± 5.66%
total peripheral resistance (TPR), x ± s [12]: 915.2 ± 199.9 dyn·s·cm^−5
cardiac output, x ± s [13]: 1.16 ± 0.14 L/min
coronary artery resistance, x ± s [13]: 0.288 ± 0.026 Kpa/ml/min
myocardial oxygen consumption, x ± s [13]: 212.9 ± 7.2 mL/min.100 g^−1
myocardial oxygen uptake, x ± s [13]: 74.5 ± 6.05%
total peripheral resistance (TPR), x ± s [13]: 907.8 ± 194.0 dyn·s·cm^−5
cardiac output, x ± s [14]: 1.16 ± 0.13 L/min
coronary artery resistance, x ± s [14]: 0.287 ± 0.028 Kpa/ml/min
myocardial oxygen consumption, x ± s [14]: 209.6 ± 9.01 mL/min.100 g^−1
myocardial oxygen uptake, x ± s [14]: 75.1 ± 6.48%
total peripheral resistance (TPR), x ± s [14]: 891.7 ± 188.6 dyn·s·cm^−5
cardiac output, x ± s [15]: 1.14 ± 0.13 L/min
coronary artery resistance, x ± s [15]: 0.287 ± 0.031 Kpa/ml/min
total peripheral resistance (TPR), x ± s [15]: 881.8 ± 188.9 dyn·s·cm^−5
